From patent US11324706B2, “Composition for inhibiting growth of breast cancer stem cells containing phenylacetaldehyde” (JEJU NATIONAL UNIVERSITY INDUSTRY-ACADEMIC COOPERATION …, priority 2016, dated 2022)
“Also recorded” adds a separate entry of the source.

Assays:
MCF-7 cells = assay: Cell proliferation (MTS) analysis, MCF-7; assay type: cell-based, human; settings: MCF-7, 48 hours after PAA treatment
Procedure: (FIGS. 1A, B and C) show chemical structures of PAA and viability of MCF-7 and MDA-MB-231 cells depending on PAA. MCF-7 and MDA-MB-231 cells were treated with increasing concentrations of PAA for 48 hours. Anti-proliferation effects of PAA were measured by MTS analysis.
Proliferation rates of MCF-7 and MDA-MB-231 cells were measured using a CellTiter 96® aqueous one solution cell proliferation kit. MCF-7 and MDA-MB-231 cells were cultured in the presence of PAA (0.1, 0.2, 0.5, 1 and 2 mM) on a 96-well plate for 48 hours. In accordance with the manufacturer's protocol, absorbance at 490 nm was determined using a 96-well plate reader (Dynex Revelation, Dynex Ltd., Billingshurst, UK). All data was determined by measurement of three sets.
In order to investigate anti-proliferation effects of PAA in human breast cancer cell lines, i.e., MCF-7 and MDA-MB-231, the cancer cell lines were treated with different concentrations of PAA and then MTS analysis was conducted.

[1] = system: Nanog, Sox2, Oct4 and CD44 genes; assay: Real-time PCR of CSC markers in mammospheres; assay type: cell-based, human; settings: β-actin internal control
Procedure: In accordance with the manufacturer's instructions, the level of transcriptome was measured with one step SYBR PrimeScript RT-PCR kit (Takara, Tokyo, Japan) using SYBR green as a double-stranded DNA-specific dye. One-step RT-PCR reaction was conducted in the final volume of 20 μl per reaction containing 1 μg of total RNA, 10 μl of 2× one step SYBR RT-PCR buffer IV, 1 μl of PrimeScript 1 step enzyme mix II, and 10 μM of PCR forward primers and PCR reverse primers for CD44, NANOG, OCT4, SOX2, and β-actin. The forward and reverse primers are as follow: […]
Relative expression amounts of mRNAs of target genes were calculated using a comparative CT method. At least three independent PCR procedures were conducted in accordance with statistical analysis. PCR products were normalized with β-actin genes, as an internal control.

HT-29 cells = assay: MTS analysis in human colorectal cancer cells; assay type: cell-based; settings: HT-29, MTS, PAA at a concentration up to 2 mM
Procedure: Anti-proliferation effects of PAA in human colorectal cancer cell lines were measured by MTS analysis.
Next, in order to investigate anti-proliferation effects of PAA on human colorectal cancer cell lines, i.e., HT-29 cells, after treatment with PAA at different concentrations, MTS analysis was conducted.

[2] = system: ALDH-positive cell populations of MDA-MB-231 cells; assay: ALDEFLUOR assay; assay type: cell-based, human; settings: MDA-MB-231, PAA 0.1 mM
Procedure: MDA-MB-231 cells were treated with PAA (0.1 mM) or DMSO, and then subjected to ALDEFLUOR assay and FACS analysis. A top panel represents, as a negative control group, an ALDH-positive cell treated with an ALDH inhibitor, DEAB, and a bottom panel represents an ALDH-positive cell not treated with DEAB. An ALDH-positive population was represented by a box;
An ALDEFLUOR assay system provides a novel approach regarding identification, evaluation and separation of CSCs based on activity of aldehyde dehydrogenase (ALDH). BODIPY-aminoacetaldehyde was added as an active reagent to breast cancer cells and converted into fluorescent BODIPY-aminoacetate by aldehyde dehydrogenase (ALDH). An ALDH inhibitor, i.e., diethylaminobenzaldehyde (DEAB), was used as a negative control group. MCF-7 cells were treated with 200 μM of PAA for 24 hours, and the rate of ALDH-positive cells was analyzed by ALDEFLUOR assay. ALDH positive and negative cells were classified by flow cytometry (Accuri C6, BD, San Diego, Calif., USA).

[3] = system: Caspase 3/7 activity in MDA-MB-231 cells; assay: Caspase-3/7 analysis (Caspase-Glo 3/7 kit); assay type: cell-based, human; settings: MDA-MB-231, 24 hours
Procedure: (FIGS. 1D, E and F) show effects of PAA on apoptosis of breast cancer cells. MDA-MB-231 cells were treated with PAA for 24 hours, and apoptotic cells were analyzed by FACS using an Annexin V-PI staining kit. Caspase 3/7 activity in MDA-MB-231 cells was analyzed using a Caspase-Gloss 3/7 kit. By fluorescent staining, apoptotic cells were analyzed and nuclei thereof were stained with Hoechst 33258 in breast cancers (magnified, 200×) (FIG. 1);
Cancer cells were treated with different concentrations of PAA for 24 hours. Caspase-3/7 activity was analyzed in accordance with the manufacturer's instructions regarding a Caspase-Glo 3/7 kit (Promega, Wis., USA). 100 μl of a Caspase-Glo 3/7 reagent was added to a 96-well for culturing cancer cells. The plate was covered with a plate sealer and cultured at room temperature for one hour, and Caspase-3/7 activity was measured using a plate-reading luminometer, GloMax® Explorer (Promega, Wis., USA).

[4] = system: nuclear STAT3 proteins (phosphorylation); assay: Western blotting of mammosphere nuclear proteins, pStat3; assay type: cell-based, human; settings: MCF-7-derived mammospheres, compared to the control group
Procedure: The proteins isolated from mammospheres of PAA-treated MCF-7 were separated on 10% SDS-PAGE and transferred to a polyvinylidene difluoride membrane (Millipore, Bedford, Mass., USA). The membrane was blocked in 5% skim milk-containing PBS-Tween 20 (0.1%, v/v) for 30 minutes at room temperature. The blot was cultured at 4° C. in a blocking solution containing primary antibodies overnight. The used primary antibodies were as follows: Stat3, p65, Lamin B, and phospho-Stat3 (Cell Signaling, Beverly, Mass., USA). β-actin antibodies (Santa Cruz Biotechnology) were used as a loading control group. After washing with PBS-Tween 20 (0.1%, v/v), the blot was cultured in a horseradish peroxidase-conjugated secondary antibody and subjected to photosensitive treatment with a chemiluminescent detection kit (Santa Cruz Biotechnology).
In order to investigate cellular functions of PAA, STAT3 and NF-κB pathways were investigated in MCF-7-derived mammospheres subjected to treatment with PAA. As compared to the control group, PAA reduced phosphorylation of nuclear STAT3 proteins.

MDA-MB-231 cells = assay: Clonogenicity assay (colony formation); assay type: cell-based, human; settings: MDA-MB-231, 7 days
Procedure: The dissociated 1,000 MDA-MB-231 cells were seeded on a 6-well plate and treated with marked concentrations of PAA and DMSO for 7 days. A representative image of colonies was recorded. Shown data is represented as a mean±SD in three independent tests. * means P<0.05, as compared to DMSO-treated control group;
MDA-MB-231 cells were seeded at a low density on a 6-well plate and treated with different concentrations of PAA in DMEM. After 24 hours, the medium was replaced with fresh medium and incubated for cell growth for 7 days. Grown colonies were counted.

Structure (SMILES): O=CCc1ccccc1 [PAA, phenylacetaldehyde]
- PAA concentration at which growth of the cell line was concentration-dependently inhibited (MCF-7 cells): ≥ 200 μm
- expression of self-renewal genes such as Nanog, Sox2, Oct4, and CD44 [1]: reduced
- growth (proliferation) of colorectal cancer cells (HT-29 cells): did not affect; also recorded: no significant proliferation inhibitory effects
- proportion of ALDH-positive breast cancer cells [2]: 0.1%
- activity of caspase 3/7 [3]: concentration-dependently induced
- phosphorylation of nuclear STAT3 proteins [4]: reduced
- formation of colonies (MDA-MB-231 cells): concentration-dependently inhibited
